Here are results for 22 compounds from patent publication US12378208B2, “N-substituted oseltamivir derivatives with antimicrobial activity” (THE HONG KONG POLYTECHNIC UNIVERSITY, priority 2019, dated 2025).

The target in one assay is NA from A/H3N2 (Influenza A virus, UniProt O91745). Put plainly: biochemical. Type of assay: biochemical, seasonal A/H3N2.
For the next assay, the system named is IBV 12v33280. Put plainly: Plaque assay in MDCK cells. It counts as cell-based, influenza B virus. The note with it: for plaque size: MDCK, day 3, vs DMSO vehicle, both concentrations.
Assay [1] relates to influenza B virus (IBV) 12v28393. Put plainly: Plaque assay in MDCK cells. It counts as cell-based. The note with it: for plaque size: MDCK, day 3, vs DMSO vehicle, both concentrations.
Assay [2] relates to influenza A virus A/OK/447/08 (H1N1). Nature of the assay: Plaque assay in MDCK cells. Type of assay: cell-based. The note with it: for plaque count: two concentrations; for plaque size compared with 0.2 nM oseltamivir: both compounds at both concentrations vs 0.2 nM oseltamivir.
The target of a further assay is neuraminidase (Influenza A virus, UniProt O91745). The note with it: previous studies (Ye et al., 2019); read-out: half maximal inhibitory concentration (IC50); cited from earlier work.
Sequence of neuraminidase (O91745 whole entry): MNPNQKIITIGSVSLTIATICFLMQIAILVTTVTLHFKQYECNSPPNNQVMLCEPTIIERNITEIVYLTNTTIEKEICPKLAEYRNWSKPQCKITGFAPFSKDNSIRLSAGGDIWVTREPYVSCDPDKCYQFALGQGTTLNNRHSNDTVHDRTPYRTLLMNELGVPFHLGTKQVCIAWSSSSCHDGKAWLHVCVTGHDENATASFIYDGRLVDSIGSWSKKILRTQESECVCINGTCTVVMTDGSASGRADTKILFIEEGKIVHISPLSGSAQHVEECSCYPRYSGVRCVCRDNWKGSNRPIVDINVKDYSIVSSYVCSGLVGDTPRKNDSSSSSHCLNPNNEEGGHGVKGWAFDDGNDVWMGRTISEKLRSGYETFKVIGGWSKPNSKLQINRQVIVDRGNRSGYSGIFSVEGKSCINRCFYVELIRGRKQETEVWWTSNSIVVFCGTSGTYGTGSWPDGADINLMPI
The subject of a further assay is IBV 12v33261. Nature of the assay: Plaque assay in MDCK cells. It counts as cell-based, influenza B virus. The note with it: for plaque size: MDCK, day 3, vs DMSO vehicle, both concentrations.
The mark [3] stands for this setting: 3.2 nM S22 vs 0.2 nM oseltamivir (p<0.01).

Sequence of NA from A/H3N2 (O91745 whole entry, looked up): as the sequence (O91745 whole entry) above

With `CCC(CC)O[C@@H]1C=C(C(=O)O)C[C@H](NCc2noc(-c3ccco3)n2)[C@H]1NC(C)=O` [Compound S7, (3R,4R,5S)-4-acetamido-5-(((5-(furan-2-yl)-1,2,4-oxadiazol-3-yl)methyl)amino)-3-(pentan-3-yloxy)cyclohex-1-ene-1-carboxylic acid], the “% Inhibition (1 nM)” value on NA from A/H3N2 came out at 28.1 ± 1.7%. Moreover, the IC50 was 1.92 ± 0.24 nM on NA from A/H3N2 (Table 2, Example 32) and 1.9 nM on neuraminidase. Besides, the plaque size result (in the assay with IBV 12v33280; in assay [1]; in the assay with IBV 12v33261) was “significantly reduce the plaque size” each time. Besides, in assay [1] (3.8 nM S7 vs 3.2 nM S22 (p<0.05)), the “inhibition compared with 3.2 nM S22” value is recorded as “extra benefit”. Besides, in assay [2] ([…]), the plaque count result is on record as “not plaque count”. In assay [2], the “plaque size compared with 0.2 nM oseltamivir” value is “equally well”.

`CCC(CC)O[C@@H]1C=C(C(=O)O)C[C@H](NCc2ccc(-c3c(C)noc3C)o2)[C@H]1NC(C)=O` [Compound S22, (3R,4R,5S)-4-acetamido-5-(((5-(3,5-dimethylisoxazol-4-yl)furan-2-yl)methyl)amino)-3-(pentan-3-yloxy)cyclohex-1-ene-1-carboxylic acid]: at NA from A/H3N2, the “% Inhibition (1 nM)” value is given as 30.2 ± 1.5%. Besides, the IC50 is 1.63 ± 0.16 nM against NA from A/H3N2 (Table 2, Example 32) and 1.6 nM on neuraminidase. The “plaque size compared with 0.2 nM oseltamivir” value is listed as “extra benefit” in the assay on IBV 12v33280 (1.6 nM S22 vs 0.2 nM oseltamivir (p<0.05)); “better inhibition effect” in the assay on IBV 12v33280 (setting [3]); “better inhibition effect” in assay [1] (setting [3]); “equally well” in assay [2]; “better inhibition effect” with IBV 12v33261 (3.2 nM S22 vs 0.2 nM oseltamivir (p<0.05)). In addition, the “inhibition compared with 1.9 nM S7” value in the assay on IBV 12v33280 (1.6 nM S22 vs 1.9 nM S7 (p<0.05)) and in the assay with IBV 12v33280 (3.2 nM S22 vs 1.9 nM S7 (p<0.01)) was “better” throughout. Further, the plaque size result (with IBV 12v33280; in assay [1]; with IBV 12v33261) was “significantly reduce the plaque size” throughout. Besides, the plaque count entry in assay [2] ([…]) is “not plaque count”.

As for `CCC(CC)O[C@@H]1C=C(C(=O)O)C[C@H](NC(=O)c2cc(-c3ccc(Cl)cc3)n[nH]2)[C@H]1NC(C)=O` [OC-011], at NA from A/H3N2, the “Inhibition rate, 1 μM” value worked out at 14.65% and the “Inhibition rate, 10 μM” value came to 50.43%.

As to `CCC(CC)O[C@@H]1C=C(C(=O)O)C[C@H](NC(=O)c2cc(-c3ccc(F)cc3)n[nH]2)[C@H]1NC(C)=O` [OC-012], on NA from A/H3N2, the “Inhibition rate, 1 μM” value is on record as 33.62% and the “Inhibition rate, 10 μM” value is listed as 56.45%. The same compound returned an IC50 at NA from A/H3N2 (Table 4, Example 34) of 11600 nM.

For the compound `CCC(CC)O[C@@H]1C=C(C(=O)O)C[C@H](NC(=O)c2cc(C3CC3)nn2-c2ccccc2)[C@H]1NC(C)=O` [OC-013], at NA from A/H3N2, the “Inhibition rate, 1 μM” value was determined as 19.92% and the “Inhibition rate, 10 μM” value worked out at 30.41%.

On to `CCC(CC)O[C@@H]1C=C(C(=O)O)C[C@H](NC(=O)c2cc(-c3cccs3)n[nH]2)[C@H]1NC(C)=O` [OC-014], for which, at NA from A/H3N2, the “Inhibition rate, 1 μM” value was found to be 21.57% and the “Inhibition rate, 10 μM” value was determined as 40.02%.

Take `CCC(CC)O[C@@H]1C=C(C(=O)O)C[C@H](NC(=O)c2cc(-c3ccc(Cl)cc3)nn2CC2CC2)[C@H]1NC(C)=O` [OC-015]: on NA from A/H3N2, the “Inhibition rate, 1 μM” value was determined as 16.52% and the “Inhibition rate, 10 μM” value stood at 31.50%.

As to `CCC(CC)O[C@@H]1C=C(C(=O)O)C[C@H](NC(=O)c2cnn(-c3ccccc3C)c2)[C@H]1NC(C)=O` [OC-016], on NA from A/H3N2, the “Inhibition rate, 1 μM” value is reported as 12.74% and the “Inhibition rate, 10 μM” value is 38.37%.

`CCC(CC)O[C@@H]1C=C(C(=O)O)C[C@H](NC(=O)c2cc(-c3ccc(OC)cc3)n[nH]2)[C@H]1NC(C)=O` [OC-017]: on NA from A/H3N2, the “Inhibition rate, 1 μM” value is reported as 14.83% and the “Inhibition rate, 10 μM” value was determined as 42.02%.

`CCC(CC)O[C@@H]1C=C(C(=O)O)C[C@H](NC(=O)c2cc(-c3ccc(Cl)cc3)nn2CC2CCC2)[C@H]1NC(C)=O` [OC-018]: at NA from A/H3N2, the “Inhibition rate, 1 μM” value is reported as 11.12% and the “Inhibition rate, 10 μM” value is given as 39.81%.

As to `CCC(CC)O[C@@H]1C=C(C(=O)O)C[C@H](NC(=O)c2cc(-c3ccc(Cl)cc3)nn2CC2CCCCC2)[C@H]1NC(C)=O` [OC-019], at NA from A/H3N2, the “Inhibition rate, 1 μM” value worked out at 11.62% and the “Inhibition rate, 10 μM” value stood at 48.50%.

In the case of `CCC(CC)O[C@@H]1C=C(C(=O)O)C[C@H](NC(=O)c2cc(C3CC3)n(-c3ccc(C(F)(F)F)cc3)n2)[C@H]1NC(C)=O` [OC-020], at NA from A/H3N2, the “Inhibition rate, 1 μM” value is listed as 8.26% and the “Inhibition rate, 10 μM” value worked out at 44.47%.

With `CCC(CC)O[C@@H]1C=C(C(=O)O)C[C@H](NC(=O)c2cc(C3CC3)n(-c3ccccc3)n2)[C@H]1NC(C)=O` [OC-021], at NA from A/H3N2, the “Inhibition rate, 1 μM” value was 7.13% and the “Inhibition rate, 10 μM” value came to 30.57%.

Take `CCC(CC)O[C@@H]1C=C(C(=O)O)C[C@H](NC(=O)c2cnn(-c3ccc(OC)cc3)c2)[C@H]1NC(C)=O` [OC-022]: on NA from A/H3N2, the “Inhibition rate, 1 μM” value was 6.31% and the “Inhibition rate, 10 μM” value was found to be 34.15%.

For `CCC(CC)O[C@@H]1C=C(C(=O)O)C[C@H](NC(=O)c2cc(C3CC3)n(-c3cccc(C)c3)n2)[C@H]1NC(C)=O` [OC-023], at NA from A/H3N2, the “Inhibition rate, 1 μM” value is listed as 6.24% and the “Inhibition rate, 10 μM” value is on record as 34.75%.

Take `CCC(CC)O[C@@H]1C=C(C(=O)O)C[C@H](NC(=O)c2cc(C3CC3)n(-c3ccc(Br)cc3)n2)[C@H]1NC(C)=O` [OC-024]: at NA from A/H3N2, the “Inhibition rate, 1 μM” value was found to be 5.84% and the “Inhibition rate, 10 μM” value is on record as 42.68%.

With `CCC(CC)O[C@@H]1C=C(C(=O)O)C[C@H](NC(=O)c2cc(C3CC3)nn2-c2ccc(Br)cc2)[C@H]1NC(C)=O` [OC-025], at NA from A/H3N2, the “Inhibition rate, 1 μM” value is given as 2.19% and the “Inhibition rate, 10 μM” value was found to be 37.17%.

As to `CCC(CC)O[C@@H]1C=C(C(=O)O)C[C@H](NC(=O)c2cnn(-c3ccc(Cl)cc3)c2)[C@H]1NC(C)=O` [OC-026], at NA from A/H3N2, the “Inhibition rate, 1 μM” value is reported as −0.26% and the “Inhibition rate, 10 μM” value was determined as 25.67%.

On to `CCC(CC)O[C@@H]1C=C(C(=O)O)C[C@H](NC(=O)c2cc(C3CC3)nn2-c2cccc(C)c2)[C@H]1NC(C)=O` [OC-027], for which, at NA from A/H3N2, the “Inhibition rate, 1 μM” value turned out to be 0.70% and the “Inhibition rate, 10 μM” value is 31.53%.

`CCC(CC)O[C@@H]1C=C(C(=O)O)C[C@H](NC(=O)c2cc(C3CC3)n(-c3ccccc3C)n2)[C@H]1NC(C)=O` [OC-028]: at NA from A/H3N2, the “Inhibition rate, 1 μM” value amounted to 8.06% and the “Inhibition rate, 10 μM” value stood at 60.91%. On NA from A/H3N2 (Table 4, Example 34), this compound had an IC50 of 22700 nM.

In the case of `CCC(CC)O[C@@H]1C=C(C(=O)O)C[C@H](NC(=O)c2cc(C3CC3)nn2-c2ccccc2C)[C@H]1NC(C)=O` [OC-029], at NA from A/H3N2, the “Inhibition rate, 1 μM” value is on record as 23.28% and the “Inhibition rate, 10 μM” value was 72.80%. The compound also displayed an IC50 against NA from A/H3N2 (Table 4, Example 34) of 16900 nM.

Turning to `CCOC(=O)C1=C[C@@H](OC(CC)CC)[C@H](NC(C)=O)[C@@H](N)C1` [oseltamivir], the plaque count result in assay [2] ([…]) was “not plaque count”. The plaque size result in assay [2] ([…], two concentrations (oseltamivir 0.1/0.2 nM, S7 1.9/3.8 nM, S22 1.6/3.2 nM)) is reported as “reduction in plaque size”. Further, the IC50 on neuraminidase was 0.1 nM.
